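In this assay, cells in 96-well plates receive the compound at five concentrations for 48 hours. Endpoints are linearly interpolated between the surrounding concentrations. Abbreviation: GI50, concentration required for 50% inhibition of growth. The concentration for full growth arrest is given as TGI.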
Experiments:
Experiment in all cases: DTP human tumour cell line panel, 48 h
[1] = test system: 786-0 renal
[2] = test system: U251 CNS
[3] = test system: MDA-MB-435
[4] = test system: CCRF-CEM leukemia
[5] = test system: HOP-92 NSCLC
[6] = test system: SF-295 CNS
[7] = test system: HCT-116 colon
[8] = test system: OVCAR-4 ovarian
[9] = test system: MALME-3M melanoma
[10] = test system: A498 renal
[11] = test system: NCI-H226 lung
[12] = test system: COLO 205 colon
[13] = test system: SF-539 CNS
[14] = test system: TK-10 renal
[15] = test system: LOX IMVI melanoma
[16] = test system: UACC-257 melanoma
[17] = test system: NCI-H460 lung
[18] = test system: K-562 leukemia
[19] = test system: MOLT-4 leukemia
[20] = test system: IGROV1 ovarian
[21] = test system: NCI-H522 lung
[22] = test system: SK-MEL-2 melanoma
[23] = test system: RXF 393 renal
[24] = test system: SNB-75 CNS
[25] = test system: EKVX NSCLC
[26] = test system: RPMI-8226 leukemia
[27] = test system: UO-31 renal
[28] = test system: SW-620 colon
[29] = test system: MCF7 breast
[30] = test system: SR leukemia
[31] = test system: UACC-62 melanoma
[32] = test system: SK-MEL-5 melanoma
[33] = test system: T-47D breast
[34] = test system: DU-145 prostate
[35] = test system: OVCAR-8 ovarian
[36] = test system: MDA-MB-231 breast
[37] = test system: SK-MEL-28 melanoma
[38] = test system: HCT-15 colon
[39] = test system: HL-60(TB) leukemia
[40] = test system: OVCAR-5 ovarian
[41] = test system: BT-549 breast
[42] = test system: SK-OV-3 ovarian
[43] = test system: HT29 colon
[44] = test system: ACHN renal
[45] = test system: HCC-2998 colon
[46] = test system: KM12 colon
[47] = test system: SF-268 CNS
[48] = test system: PC-3 prostate
[49] = test system: SNB-19 CNS
[50] = test system: CAKI-1 renal
[51] = test system: HOP-62 NSCLC
[52] = test system: HS 578T breast
[53] = test system: M14 melanoma
[54] = test system: A549 NSCLC

Cc1ccc(N2CCN(C3=C(Cl)C(=O)c4ncccc4C3=O)CC2)cc1
GI50 [1]: 3.35 µM
TGI [1]: 10.2 µM
GI50 [2]: 1.79 µM
TGI [2]: 3.42 µM
GI50 [3]: 1.91 µM
TGI [3]: 3.51 µM
GI50 [4]: 2.21 µM
TGI [4]: 7.09 µM
GI50 [5]: 1.63 µM
TGI [5]: 3.17 µM
GI50 [6]: 2.12 µM
TGI [6]: 4.86 µM
GI50 [7]: 1.62 µM
TGI [7]: 2.97 µM
GI50 [8]: 1.68 µM
TGI [8]: 3.29 µM
GI50 [9]: 1.77 µM
TGI [9]: 3.34 µM
GI50 [10]: 15 µM
TGI [10]: 28.4 µM
GI50 [11]: 10.1 µM
TGI [11]: 26.5 µM
GI50 [12]: 1.84 µM
TGI [12]: 3.33 µM
GI50 [13]: 1.85 µM
TGI [13]: 3.5 µM
GI50 [14]: 7.15 µM
TGI [14]: 18.1 µM
GI50 [15]: 1.52 µM
TGI [15]: 2.91 µM
GI50 [16]: 1.75 µM
TGI [16]: 3.3 µM
GI50 [17]: 4.49 µM
TGI [17]: 22.6 µM
GI50 [18]: 1.35 µM
TGI [18]: 8.53 µM
GI50 [19]: 2.09 µM
TGI [19]: 5.59 µM
GI50 [20]: 1.74 µM
TGI [20]: 3.21 µM
GI50 [21]: 1.76 µM
TGI [21]: 3.53 µM
GI50 [22]: 2.11 µM
TGI [22]: 4.48 µM
GI50 [23]: 1.79 µM
TGI [23]: 3.23 µM
GI50 [24]: 12.8 µM
TGI [24]: 33.3 µM
GI50 [25]: 1.73 µM
TGI [25]: 3.14 µM
GI50 [26]: 2.14 µM
TGI [26]: 5.79 µM
GI50 [27]: 1.53 µM
TGI [27]: 3.11 µM
GI50 [28]: 1.47 µM
TGI [28]: 3.08 µM
GI50 [29]: 1.22 µM
TGI [29]: 3.23 µM
GI50 [30]: 0.504 µM
TGI [30]: 4.8 µM
GI50 [31]: 1.84 µM
TGI [31]: 3.6 µM
GI50 [32]: 1.86 µM
TGI [32]: 3.77 µM
GI50 [33]: 1.61 µM
TGI [33]: 4.04 µM
GI50 [34]: 6.05 µM
TGI [34]: 18.3 µM
GI50 [35]: 1.6 µM
TGI [35]: 2.99 µM
GI50 [36]: 1.59 µM
TGI [36]: 3.09 µM
GI50 [37]: 2.35 µM
TGI [37]: 5.25 µM
GI50 [38]: 1.54 µM
TGI [38]: 3.28 µM
GI50 [39]: 1.35 µM
TGI [39]: 3.87 µM
GI50 [40]: 3.36 µM
TGI [40]: 11.4 µM
GI50 [41]: 5.51 µM
TGI [41]: 17.3 µM
GI50 [42]: 12.8 µM
TGI [42]: 25.8 µM
GI50 [43]: 5.05 µM
TGI [43]: 19.3 µM
GI50 [44]: 1.61 µM
TGI [44]: 2.96 µM
GI50 [45]: 1.77 µM
TGI [45]: 3.38 µM
GI50 [46]: 17.5 µM
TGI [46]: 32 µM
GI50 [47]: 5.91 µM
TGI [47]: 22.2 µM
GI50 [48]: 2.85 µM
TGI [48]: 11.9 µM
GI50 [49]: 13.4 µM
TGI [49]: 26.4 µM
GI50 [50]: 1.68 µM
TGI [50]: 3.09 µM
GI50 [51]: 15.4 µM
TGI [51]: 29.4 µM
GI50 [52]: 3.64 µM
TGI [52]: 34.5 µM
GI50 [53]: 1.84 µM
TGI [53]: 3.69 µM
GI50 [54]: 15 µM
TGI [54]: 33.3 µM

— PubChem BioAssay (NCI)
